# In patent US20220152087A1, “CYCLODEXTRIN DERIVATIVES REDUCING FLAVIVIRUS NS1-INDUCED ENDOTHELIAL HYPERPERMEABILITY AND VASCULAR LEAK” (priority 2020, published 2022):
# System: endothelial dysfunction induced by DENV NS1 in HPMEC monolayers
# Experiment: Effect of cyclodextrins on endothelial dysfunction induced by DENV NS1 (TEER of HPMEC monolayers in transwells)
# Type: cell-based, human
# Settings: DENV NS1 at 10 micrograms/mL, TEER 2 to 10 hours post-treatment, AUC vs DENV NS1-only control
# Method: The present invention is based on the evaluation of the in vitro efficacy against DENV NS1-mediated pathogenesis of a series of different CDs that display variable cavity sizes as well as different degrees and types of substitution. In an in vitro model of endothelial permeability, CDs, at concentrations with no anticoagulant effects, were added to human pulmonary microvascular endothelial cells (HPMECs) treated with DENV NS1 to induce endothelial hyperpermeability.
# Endothelial disruption (hyperpermeability) was quantified by measuring transendothelial electrical resistance (TEER). […] Sulfate group substitution of cyclodextrins contributed to the anti-leak activity.
# The method is suitable to study the effect of NS1 from DENV from all serotypes and NS1 from other flaviviruses. HPMEC monolayers (6×10^4 cells/transwell) cultured in transwell inserts for three days were treated with the CD compounds then treated or not with DENV NS1 at 10 micrograms/mL. Recombinant NS1 protein from DENV (Strain 16681) weas certified to be endotoxin-free and >95% purity (Native Antigen, United Kingdom). TEER was measured from 2 to 10 hours post-treatment. The area under the curve of the different treatments+DENV NS1 was compared by one-way ANOVA plus Dunnett's test to the DENV NS1-only control.
# Randomly substituted alpha-cyclodextrin sulfate sodium salt (average degree of substitution: ˜12) was used as specified according to Example 1. […] A) HPMEC monolayers (6×10e4 cells/transwell) cultured in transwell inserts for three days were treated with the compounds in the presence or absence of DENV NS1 at 10 ug/mL. TEER was measured from 2 to 10 hours post-treatment. Relative TEER was calculated as the ratio between resistance values obtained in the different treatments and medium-only controls. B) Area under the curve of the different treatments was compared by one-way ANOVA plus Dunnett's test to the DENV NS1control. P-values are summarized with number of asterisks as follows: *p≤0.05, **p≤0.01, ***p≤0.001, ****p≤0.0001. The effective dose of cyclodextrin for hindering endothelial leakage was 10 micrograms/mL.
row,Substance,effective dose of cyclodextrin for hindering endothelial leakage / hyperpermeability
1,"2,3-di-OH-6-sulfo-gamma cyclodextrin sodium salt",10 micrograms/mL
2,"2,3-dimethyl-6-sulfate-alpha cyclodextrin sodium salt",250 micrograms/mL
3,"2,3-dimethyl-6-sulfate-beta cyclodextrin sodium salt",100 micrograms/mL
4,"2,3-dimethyl-6-sulfate-gamma cyclodextrin sodium salt",100 micrograms/mL
5,2-hydroxypropyl-beta-cyclodextrin [reference compound],1000 micrograms/mL
6,2-hydroxypropyl-gamma-cyclodextrin,1000 micrograms/mL
7,alpha-cyclodextrin sulfate sodium salt,10 micrograms/mL
8,beta cyclodextrin sulfate sodium salt,10 micrograms/mL
9,gamma cyclodextrin sulfate sodium salt,10 micrograms/mL
10,sulfobutlyether beta cyclodextrin sodium salt,100 micrograms/mL
11,sulfopropylether alpha cyclodextrin sodium salt,1000 micrograms/mL
12,sulfopropylether beta cyclodextrin sodium salt,1000 micrograms/mL
13,sulfopropylether gamma cyclodextrin sodium salt,1000 micrograms/mL
